The values that follow come from article PMC9945084, “Stimulation of natural killer cells with small molecule inhibitors of CD38 for the treatment of neuroblastoma” (Chemical Science, 2023).

“And” between values parts separate entries of the source, which are not always exact repeats. Identical values can stand only once. Where only a bound is given, the exact number is not on record here.

In data set [1] the target is T1, human recombinant CD38 (hydrolase activity) (Homo sapiens, UniProt P28907). The data set can be described thus: Human recombinant CD38 fluorometric enzyme assay, hydrolase activity (εNAD+). The following applies: for remaining activity at 50 µM: 50.0 μM compound, 10 nM recombinant CD38, 10 μM εNAD+; for IC50: recombinant CD38 enzyme assay; for decrease in potency relative to hit compound 1: CD38 hydrolase IC50 versus 1. It is filed as biochemical. The procedure: Compounds were screened for inhibition against CD38 hydrolase activity in a human recombinant CD38 fluorometric assay. Recombinant CD38 was diluted in assay diluent (PBS, 0.02% Tween-20, pH 7.4) to a 4× working concentration (40 nM). Test compounds were diluted in assay diluent to a working concentration of 200 μM. Working CD38 (25.0 μL) and the 4× test compound (25.0 μL) were pipetted into a black 96-well microplate and incubated for 15 minutes at 25 °C on an orbital shaker. Following incubation, 20 μM εNAD^+ (50 μL) was pipetted into each well and fluorescence intensity was measured kinetically for 10 minutes (ex/em: 300/410 nm) using a Molecular Devices SpectraMax iD3 plate reader. Final concentrations of all components were: 10 nM recombinant CD38, 50 μM test compound (50 nM for control compound 3), and 10 μM εNAD^+. Means for data points at 1 minute 49 seconds were normalized to vehicle treated control. Values were expressed as percent remaining activity of CD38. Each assay was conducted in technical and experimental triplicate and compared to literature reported values of 14.

Data set [2] addresses T1, human recombinant CD38 (hydrolase activity). Described as above. Format: biochemical. The conditions noted are these: 25 μM compound.
The subject of data set [3] is CD38 hydrolase activity. More on the design: method as in PMID 26864107. The conditions noted are these: cited from earlier work.
The test system of data set [4] is CD38 cyclase activity. More on the design: method as in PMID 26864107. The following applies: cited from earlier work.
In data set [5] the test system is CD38 hydrolase activity. The conditions noted are these: cited from earlier work.
Data set [6] relates to donor 3 PB NK cells (IFNγ secretion). Briefly: 20 day treatment of PB NK cells, IFNγ in supernatant (Lumit IFNγ assay). Format: cell-based, human. The conditions noted are these: donor 3, fresh medium every 3 days, day 20. The procedure: The TME has the ability to down regulate NK cell activation and function, therefore it is important to discern whether inhibition of CD38 hydrolase activity over an extended period will improve NK cell activation and support a persistent response.[62] To address this question, donor 3 PB NK cells were plated on a 12-well plate at a confluency of 1 × 10^6 cells mL^−1 in Immunocult-XF T cell expansion medium supplemented with 500 IU mL^−1 IL-2, 10 ng mL^−1 IL-15, and 0.2 μL mL^−1 CD2/CD3/CD28 T cell activator. Cells were treated with vehicle control, 2, or 14. Cells were treated with fresh medium every 3 days over the course of 20 days. Cells from each treatment group were counted on the 20th day of treatment and viability determined using trypan blue. NK cells treated with 2 or 14 were normalized to vehicle control with the percent change in viable cells presented as a function of the treatment condition (Fig. 8A). We observed 43 ± 6% more viable cells in the group treated with 14 and 36 ± 13% more viable cells in the group treated with 2, relative to vehicle control. Additionally, on the 20th day of treatment the cell supernatant was collected and analyzed for IFNγ using the Promega Lumit IFNγ assay. Treatment groups were normalized to vehicle control and the data presented as IFNγ % difference as a function of treatment (Fig. 8B). […]

Data set [7] deals with NAD+ levels. More on the design: method as in PMID 35497564. The following applies: cited from earlier work.
In data set [8] the test system is SHSY5Y-GFP cells. Briefly: Proliferative effect on SHSY5Y-GFP cells alone, 24 h imaging. Format: cell-based, human. The conditions noted are these: 1.0 μM, at both 20 000 and 30 000 cells per well. The procedure: SHSY5Y-GFP cells were plated at 20 000, 30 000, 40 000, and 50 000 cells per well with 6 test wells each. Cells were incubated for 24 hours and imaged with a BioTek Cytation 5 at 20× with 4 fields per well using brightfield and GFP channels. The data is presented as the sum of SHSY5Y-GFP cells in imaged fields as a function of cells per well (Fig. 9A). Optimal plating density was determined to be between 20 000 and 30 000 cells per well. Additionally, we wanted to rule out proliferative effects in SHSY5Y-GFP cells treated with 2. Cells were plated at 20 000 or 30 000 cells per well and treated with varying concentrations of 2 or vehicle control for 24 hours and imaged as described above. Data was then expressed as the sum of SHSY5Y-GFP cells in imaged fields as a function of the concentration of 2 (Fig. 9B).

The test system of data set [9] is SHSY5Y-GFP NB cells. The data set can be described thus: SHSY5Y-GFP and PB NK cell co-culture assay with ch14.18-IL2. It is filed as cell-based, human. The procedure: Following optimization, SHSY5Y-GFP cells were plated at 25 000 cells per well and incubated for 24 hours. PB NK cells stained with cell tracker deep red were added to SHSY5Y-GFP cells with 50 ng mL^−1 ch14.18-IL2 and treated with 2, 14 or vehicle control. Cells were incubated for 90 minutes at 37 °C and imaged using a BioTek Cytation 5 at 20× (Fig. 11A–C). Live SHSY5Y-GFP cells were quantitated by measuring the integrated GFP fluorescence intensity. After only 90 minutes treatment with a 1.0 μM concentration of 2 and 50 ng mL^−1 ch14.18-IL2a caused a 14 ± 3% decrease in SHSY5Y-GFP fluorescent area (Fig. 11B) relative to vehicle-treated control (Fig. 11A). […] Fig. 12 is a close-up view from a representative well showing the effects of 1 μM 2 combined with 50 ng mL^−1 ch14.18-IL2.
SHSY5Y-GFP NB cells were plated at a concentration of 25 000 cells per well (100 μL) for 12 hours on a black, clear-bottom, 96-well microplate. PB NK cells were washed with PBS and resuspended in 5 μM cell tracker deep red in RPMI 1640 without FBS for 30 minutes at 37 °C, 5% CO2. Following incubation, cells were washed with PBS and resuspended in RPMI 1640 supplemented with 10% FBS. Compounds were dissolved in DMSO and diluted to a 4 μM working solution with cell culture medium. […] The sum integration of GFP area was measured and normalized to vehicle-treated control. […]

Data set [10] deals with Human PB NK cells (IFNγ secretion). Briefly: Quantitation of IFNγ secreted by PB NK cells, 24 h (Lumit IFNγ assay). It is filed as cell-based. Here is the method: In light of the substantial change in viability/proliferation of PB NK cells following treatment with 2, changes in the ability of treated NK cells to secrete IFNγ were measured.[60,61] Human PB NK cells (purity > 90%) were added to a 96-well plate at a confluency of 49 000 cells per well in Immunocult-XF T cell expansion medium supplemented with 500 IU mL^−1 IL-2, 10 ng mL^−1 IL-15, and 0.2 μL mL^−1 CD2/CD3/CD28 T cell activator. These cells were exposed to varying concentrations of 2 or 14 for 24 hours, followed by quantification of IFNγ using a Lumit IFNγ assay kit (W6040, Promega, Madison, WI). Treatment groups were normalized to vehicle-treated control and data was expressed as percent change in IFNγ. As often happens, we encountered a wide variability in the response of human primary cells from different donors. […] Despite the variability in the magnitude of the IFNγ response, the trend in all 3 donors was a dose-dependent increase for both 2 and 14. Decreases in IFNγ expression at higher doses of both compounds in donors 2 and 3 may be due to modest cytotoxicity.
Human PB NK cells were plated at 49 000 cells per well (60 μL per well) on a white, clear-bottom, 96-well microplate in Immunocult-XF T cell expansion medium supplemented with 1× penicillin/streptomycin, 500 IU mL^−1 IL-2, 10 ng mL^−1 IL-15, 0.2 μL mL^−1 CD2/CD3/CD28 T cell activator. Test compounds were dissolved in DMSO and diluted to a 4× working solution. Working test compound was added to the cells (20 μL) and the cells were incubated at 37 °C, 5% CO2 for 24 hours. The last 3 columns on the microplate were left empty for IFNγ standards. The provided human IFNγ standard (10 μg mL^−1) was diluted to 10 000 pg mL^−1 using cell culture medium. The 10 000 pg mL^−1 solution was serially diluted 3.33-fold for a total of 7 standard concentrations. The IFNγ standards were plated (80 μL) in the empty columns (in triplicate) following incubation. A 5× solution of both antibodies was prepared by combining the Lumit Anti-hIFN-γ-mAb-LgBiT (24 μL) and the Lumit Anti-hIFN-γ-mAb-SmBiT (24 μL) with cell culture medium (2.4 mL). The 5× antibody solution (20 μL) was pipetted into each well. The microplate was briefly mixed for 15 seconds on a shaker at 250 rpm and incubated for 90 minutes at 37 °C, 5% CO2. Following incubation, the microplate was allowed to rest at 25 °C for 15 minutes. The Lumit detection substrate (160 μL) was diluted with Lumit detection buffer B (3040 μL) and pipetted into each well (25 μL). The microplate was allowed to incubate for 5 minutes at 25 °C and then the luminescence was measured using a Molecular Devices SpectraMax iD3 plate reader. A standard curve with averaged RLU measurements of the IFNγ concentrations was determined with GraphPad Prism using 4-parameter logistic curve fitting. […]

As a reminder, the remaining activity is what remains of the control signal, in per cent. As a reminder, the IC50 is the point on the concentration scale where inhibition reaches its midpoint.

T1 sequence (P28907 whole entry): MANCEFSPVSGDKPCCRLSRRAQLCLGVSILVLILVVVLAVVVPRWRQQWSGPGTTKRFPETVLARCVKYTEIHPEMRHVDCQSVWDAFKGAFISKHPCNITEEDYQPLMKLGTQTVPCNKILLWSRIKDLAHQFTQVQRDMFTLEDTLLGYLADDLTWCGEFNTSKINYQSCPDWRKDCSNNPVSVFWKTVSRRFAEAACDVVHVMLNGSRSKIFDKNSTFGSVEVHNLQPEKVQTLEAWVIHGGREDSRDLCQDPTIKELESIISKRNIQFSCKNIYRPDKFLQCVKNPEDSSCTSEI

`Cc1cc(C)c2nc(Nc3nc(C)c(C)c(O)n3)nc(C)c2c1` [Compound 4]: in data set [1], the remaining activity at 50 µM worked out at 58.2 ± 1.4% and the IC50 worked out at 5.1 ± 0.9 µM.
As to `Cc1nc(NC2=NCCC(=O)N2)nc2ccccc12` [Compound 6], the remaining activity at 50 µM in data set [1] is 66.8 ± 0.6%.
Regarding `Cc1nc(NC2=NCN(CCN3CCOCC3)CN2)nc2c(C)cccc12` [Compound 9], the remaining activity at 25 µM in data set [2] amounted to 65.3 ± 0.6%.
With `CCOc1ccc2nc(Nc3nc(=O)c(Cc4ccccc4)c(C)[nH]3)nc(C)c2c1` [Compound 5], in data set [1], the remaining activity at 50 µM amounted to 57 ± 0.3%; the “decrease in potency relative to hit compound 1” value was found to be 2 fold; the IC50 was 8 µM and 8.3 µM.
For daratumumab, in [3], the “effect on CD38 hydrolase activity” value was “enhances CD38 hydrolase activity”. In addition, the “effect on CD38 cyclase activity” value in data set [4] is recorded as “modest inhibitory activity”.
In the case of `Cc1nc(Nc2nc(CCC(C)C)cc(=O)[nH]2)nc2ccccc12` [Compound 7], in data set [1], the remaining activity at 50 µM is 60.3 ± 0.7% and the IC50 turned out to be 4 ± 0.9 µM.
Turning to `CC1=CC(C)(C)N=C(Nc2nc(C)c3cccc(C)c3n2)N1` [Compound 3], in [1], the remaining activity at 50 µM was 41 ± 0.03%, the “decrease in potency relative to hit compound 1” value was 2 fold and the IC50 was determined as 8.4 ± 0.7 µM.
Consider `CC1=CC(C)(C)N=C(Nc2nc(C)c3cc(C)cc(C)c3n2)N1` [Compound 1], for which the “mode of inhibition of CD38 hydrolase activity” value in data set [5] is given as “mixed inhibition”. For the same compound, in data set [1], the remaining activity at 50 µM is 61.6 ± 2% and the IC50 is 4.2 ± 0.5 µM.
In the case of `CC1=NC(Nc2nc(C)c3cc(C)cc(C)c3n2)=NC(C)(C)C1` [Compound 12], in data set [1], the remaining activity at 50 µM worked out at 52 ± 9.6% and the “decrease in potency relative to hit compound 1” value is on record as ~3 fold.
In the case of `COc1cc(C)cc2c(C)nc(NC3=NC(C)(C)C=C(C)N3)nc12` [Compound 2, 8-Methoxy-4,6-dimethyl-N-(4,4,6-trimethyl-1,4-dihydropyrimidin-2-yl)quinazolin-2-amine], the “more IFNγ secreted relative to vehicle control” value in data set [6] was 20 ± 1%. Moreover, the remaining activity at 25 µM in [2] amounted to 5.6 ± 0.8%. The “change in NAD+ levels” value in [7] was “significant increases”. In [8], the “cell number difference between vehicle-treated and treated SHSY5Y-GFP cells” value was < 4%. Besides, the “decrease in SHSY5Y-GFP fluorescent area relative to vehicle-treated control” value in data set [9] (1.0 μM + 50 ng mL−1 ch14.18-IL2, 90 minutes, effector : target 1 : 1) is 14% and 14 ± 3%. Further, in data set [10] (donor 1, 1.0 μM), the “increase in IFNγ, donor 1” value amounted to 759 ± 45%. In addition, the “increase in IFNγ, donor 2” value in [10] (donor 2, 0.111 μM) came to 100 ± 29%. Besides, in [10] (donor 3, 0.037 μM), the “increase in IFNγ, donor 3” value is reported as 18 ± 2%. Besides, the IC50 in data set [1] came out at 1.9 ± 0.1 µM.
As to `CC1=CC(C)(C)N=C(Nc2nc(-c3ccccc3)c3cc(C)cc(C)c3n2)N1` [Compound 11], in data set [1], the remaining activity at 50 µM stood at 49.1 ± 2.2%; the “decrease in potency relative to hit compound 1” value is 5 fold; the IC50 is 23 µM and 23.8 µM.
For `CCc1ccc2c(C)nc(NC3=NC(C)(C)C=C(C)N3)nc2c1` [Compound 13], in [1], the remaining activity at 50 µM turned out to be 48.1 ± 6.8% and the half-inhibitory concentration (IC50) was 22.4 ± 1.1 µM.
For `COCCO[C@H]1CC[C@H](Nc2cc(=O)n(C)c3ccc(-c4cncs4)cc23)CC1` [Compound 14, reference compound], the “more IFNγ secreted relative to vehicle control” value in data set [6] came out at 23 ± 2%. The “change in NAD+ levels” value in data set [7] was “significant increases”. In [5], the “mode of inhibition of CD38” value was “mixed inhibition”. Besides, the “difference in SHSY5Y-GFP cells versus vehicle-treated control, in words” value in data set [9] (1 μM + 50 ng mL−1 ch14.18-IL2, 90 minutes) is “not a statistically significant difference”. Also, in data set [10] (all 3 donors), the “increases in IFNγ levels, in words” value is reported as “similaer to the effects of 2”. Also, in data set [1] (positive control 14, used at 50.0 nM according to b14 and b58), the remaining activity at 0.05 µM was 60.3 ± 1.8%. For the same compound, the IC50 in [1] came to 0.078 ± 0.03 µM.
